This is an account of results in patent US20220315934A1, “HETEROLOGOUS RIBOSOME GENERATION, […] COMPOSITIONS THEREOF” (priority 2019, published 2022).

As a reminder, the MIC is the smallest concentration in the dilution series that meets the test's criterion for growth inhibition. High values mean a need for much substance, low ones inhibition by little substance.

What all share (assay type): cell-based
The test system of assay [1] is E. coli strain S4246. In words: Antibiotic sensitivity/resistance of erythromycin-resistant strain S4246. As to the method:
The erythromycin-resistant strain S4246 was generated using conventional recombineering (76, 77). Briefly, chemically competent S2060 cells were transformed with pKD46 (77) and plated on 2×YT agar plates supplemented with 50 μg mL^−1 carbencillin at 30° C. A single colony was picked, grown at 30° C. in 2×YT liquid medium supplemented with 50 μg mL^−1 carbencillin and 10 mM arabinose, and made chemically competent when the culture reached the appropriate OD600. Chemically competent S2060/pKD46 cells were transformed with the phosphothiorated recombineering oligonucleotide AB5708 (5′-C*T*C*A*[…] CCGCG […]-3′, SEQ ID NO: 403; phosphothirate bonds indicated as *, introduced mutation is bolded) to introduce the rrlA-H A2058U mutation on replichore 2 (76). Following recovery for 3 hours at 30° C., transformed cells were plated on 2×YT agar plates supplemented with 1000 μg mL^−1 erythromycin and incubated at 37° C. to cure the resident pKD46 plasmid. Following overnight growth, single colonies were picked into 2×YT liquid medium supplemented with 50 μg mL^−1 streptomycin, 10 μg mL^−1 tetracycline and 1000 μg mL^−1 erythromycin and allowed to grow overnight at 37° C. To assess the degree of rrlA-H mutagenesis, cultures were used as PCR templates using primers AB5710 (5′-[…]-3′, SEQ ID NO: 404) and AB5711 (5′-[…]-3′, SEQ ID NO: 405), and the PCR products were treated with the endonuclease HpyCH4III (New England Biolabs) according to the manufacturer's guidelines. Wildtype rrlA-H genotypes show no digestion under these conditions, whereas complete conversion results in complete PCR product digestion. Intermediate (incomplete) digestion indicated in incomplete conversion of all seven genomic alleles. The completely converted strain S4246 was confirmed to be sensitive to the following antibiotics (ensures no resistance crosstalk with plasmid-borne markers): carbenicillin (50 μg mL^−1), spectinomycin (100 μg mL^−1), chloramphenicol (40 μg mL^−1), and kanamycin (30 μg mL^−1). The strain was confirmed to be resistant to the following antibiotics: streptomycin (50 μg mL^−1), tetracycline (10 μg mL^−1), and erythromcyin (1000 μg mL^−1).

Assay [2] relates to episome-derived E. coli orthogonal ribosome LSUs. Put plainly: Erythromycin-dependent (ermCL) orthogonal sfGFP reporter in S4246, E. coli orthogonal ribosomes. The source says: (§1) To assess the degree of association between E. coli LSUs and heterologous SSUs, an erythromycin-dependent reporter was developed to distinguish between genome- (E. coli; erythromycin-resistant) and episome-derived (heterologous; erythromycin-sensitive) LSUs. The erythromycin-resistant strain S4246 was developed, wherein all seven genomic 23S genes (rrlA-H) of 52060 cells were mutated (A2058U) (75) to mitigate macrolide binding in the ribosomal exit tunnel (FIG. 18A) (76, 77). rrlA-H A2058U sequences are presented in Table 1.
(§2) Next, the ErmC leader peptide, ermCL, was introduced ahead of the orthogonal sfGFP reporter, ensuring that reporter translation would be abrogated via erythromycin- and ermCL-dependent translational stalling (78) (FIG. 18B).
To validate this sensor, the erythromycin sensitivity of an episome-derived E. coli orthogonal ribosome encoding or lacking the identical A2058U mutation was assessed. A recently described stapled E. coli ribosome (d2d8) (7) that preferentially uses a covalently linked 23S rRNA, with or without the identical mutation was used as a control.

Assay [3] relates to heterologous ribosomes. In words: Erythromycin-dependent orthogonal sfGFP reporter in S4246, heterologous ribosomes.
Text: as §1, §2
This analysis was next extended to a set of 20 functional heterologous ribosomes.

The mark [4] stands for this setting: heterologous ribosomes bearing intermediate homology (92.9-97.0%).

Consider `CC[C@H]1OC(=O)[C@H](C)[C@@H](O[C@H]2C[C@@](C)(OC)[C@@H](O)[C@H](C)O2)[C@H](C)[C@@H](O[C@@H]2O[C@H](C)C[C@H](N(C)C)[C@H]2O)[C@](C)(O)C[C@@H](C)C(=O)[C@H](C)[C@@H](O)[C@]1(C)O` [erythromycin], for which the MIC in assay [1] (Escherichia coli, S4246) is more than 1000 µg/mL. The “resistance of strain S4246” value in assay [1] (erythromycin 1000 μg mL^−1) is “resistant”. In addition, the “change in orthogonal translation upon erythromycin dosing” value is listed as “no appreciable change” in assay [2] (A2058U-LSUs, free and stapled (d2d8)); “marked reduction” in assay [2] (unmutated LSUs, dose-dependent). In addition, the “sfGFP signal upon erythromycin treatment” value in assay [3] (setting [4]) is “extensive reduction”; in assay [3] (more divergent heterologous ribosomes (79.3-90.3%)) it was “decreased minimally”. Further, in assay [3] (setting [4]), the “viability upon erythromycin treatment” value is “no associated viability defect”. The “sfGFP translation and cell viability upon erythromycin treatment” value in assay [3] (heterologous ribosomes with high 16S sequence identity to E. coli (≥99.2%)) is recorded as “dramatic reduction”.

As to `O=C(N[C@H](CO)[C@H](O)c1ccc([N+](=O)[O-])cc1)C(Cl)Cl` [chloramphenicol], the “sensitivity of strain S4246” value in assay [1] (chloramphenicol 40 μg mL^−1) is given as “sensitive”.

Take `[H]/N=C(/N)N[C@H]1[C@H](O)[C@@H](O)[C@H](O[C@@H]2O[C@@H](C)[C@](O)(C=O)[C@H]2O[C@@H]2O[C@@H](CO)[C@H](O)[C@@H](O)[C@@H]2NC)[C@@H](N/C(N)=N\[H])[C@@H]1O` [streptomycin]: in assay [1] (streptomycin 50 μg mL^−1), the “resistance of strain S4246” value was “resistant”.

Regarding `CN[C@@H]1[C@H](O)[C@H](NC)[C@H]2O[C@@]3(O)C(=O)C[C@@H](C)O[C@H]3O[C@@H]2[C@H]1O` [spectinomycin], in assay [1] (spectinomycin 100 μg mL^−1), the “sensitivity of strain S4246” value is reported as “sensitive”.

Regarding `CC1(C)S[C@@H]2[C@H](NC(=O)C(C(=O)O)c3ccccc3)C(=O)N2[C@H]1C(=O)O` (stereo partly drawn) [carbenicillin], in assay [1] (carbenicillin 50 μg mL^−1), the “sensitivity of strain S4246” value is recorded as “sensitive”.
